Results from patent US20140235542A1, “MODULAR, BIOACTIVE PEPTIDES FOR BINDING NATIVE BONE AND IMPROVING BONE GRAFT OSTEOINDUCTIVITY” (WISCONSIN ALUMNI RESEARCH FOUNDATION, priority 2013, published 2014).
Square brackets hold non-standard residues; d marks the D form. Ends that are not written are not given here. Gla = N[C@@H](CC(C(=O)O)C(=O)O)C(=O)O

Assays:
hMSCs [1] = assay: Alkaline phosphatase (ALP) activity in hMSCs; format: cell-based, human; conditions: peptide bound to HA-coated film, vs untreated substrates
Protocol: hMSCs (Cambrex, Walkersville, Md., passages 5-6) were cultured in mesenchymal stem cell growth medium (MSCGM: Cambrex) consisting of MSC Basal Medium supplemented with 10% fetal bovine serum, L-glutamine, 100 units/ml penicillin, and 0.1 mg/ml streptomycin and grown using culture methods described elsewhere. […] The effects of soluble peptides included in culture medium were evaluated by adding 50 μg of eBGu3 or eBGa3 peptides to hMSC cultures on TCP in 500 μl of medium with or without osteogenic culture supplements. […]
The biological activity of modular peptides was initially assayed by their ability to enhance ALP activity in hMSCs. […] ALP activity was measured at 405 nm, and calculated as the ratio of p-nitrophenol released to total DNA concentration (nmol/min/ng DNA). To determine the amount of total DNA in each well, the cell nuclei were disrupted by addition of the aforementioned lysis buffer followed by centrifugation, and quantified using the CyQUANT Assay Kit (Molecular Probes, Eugene, Oreg.).

hMSCs [2] = assay: Mineralized tissue formation by hMSCs (Alizarin Red-S staining); format: cell-based, human; conditions: peptide bound to HA-coated film, vs untreated substrates
Protocol: hMSCs (Cambrex, Walkersville, Md., passages 5-6) were cultured in mesenchymal stem cell growth medium (MSCGM: Cambrex) consisting of MSC Basal Medium supplemented with 10% fetal bovine serum, L-glutamine, 100 units/ml penicillin, and 0.1 mg/ml streptomycin and grown using culture methods described elsewhere. 2.5×10^4 hMSCs were seeded onto either tissue culture-treated polystyrene (TCP) or four different types of experimental substrates (1 cm^2) (PLG, HA-coated PLG, eBGu3-treated HA coating, or eBGa3-treated HA coating). hMSCs were allowed to attach to each substrate overnight, then cultured in MSCGM with osteogenic culture supplements (OS) (0.1 μM dexamethasone, 50 μg/ml ascorbic acid, and 10 mM β-glycerophosphate) for 24 days. The effects of soluble peptides included in culture medium were evaluated by adding 50 μg of eBGu3 or eBGa3 peptides to hMSC cultures on TCP in 500 μl of medium with or without osteogenic culture supplements. […]
Characterization of mineralized tissue growth was performed via Alizarin Red-S (ARS) staining at day 20. […] For quantification of staining, 400 μl 10% (v/v) acetic acid was added to each well for 30 minutes with shaking. […] Aliquots (100 μl) of the supernatant were read in triplicate at 405 nm in 96-well plate reader.

[3] = Binding of rhodamine-labeled peptide to cortical bone; design: species or system sheep
Protocol: (§1) The native bone used were harvested from sheep tibia and bovine sternum. Cortical (compact) bone slices were collected from sheep tibia with periosteum removed, and trabecular (cancellous, spongy) bone cores were drilled out from bovine sternum under sterile conditions.
The peptide binding to native bones was tested in three different experiments. In the first experiment, the cortical bone slices were incubated in modular peptide solution (0.5 mL, PBS) with concentrations of 50, 100, 200 and 300 μg/mL. The incubation was continued in a static condition for a period of 0.5, 1, 2 and 3 hours. For another experiment, the trabecular bone cores were placed in the chamber of bone bioreactor where the peptide solution prepared in DMEM (100 μg/mL, 6.5 mL) was continuously circulated through the chamber for a time period of 2, 4, 6, 8 and 10 hours. In the last experiment, mBMP was bound in a spatially controlled manner by dip-coating, spotting or writing with mBMP solution on native bone tissues. Following each experiment, the bones were rinsed with PBS to remove unbound peptide and their fluorescence images were captured using a Typhoon fluorescence scanner (GE healthcare) or a Nikon Eclipse Ti inverted microscope. To quantify the fluorescence intensity, the images were converted into 8-bit using ImageJ to present the intensity level of each pixel in the range of 0 to 255. The mean pixel intensity of a selected region of interest was considered to be proportional to the amount of peptide bound.
To examine mBMP binding to cortical bone without periosteum (ca. 4 mm×7 mm×1.5 mm) from the shaft of sheep tibia, the bone tissue was incubated in mBMP solution prepared in phosphate buffered saline (PBS). The binding of mBMP was concentration-dependent for each incubation time tested (FIGS. 12 and 13A). The quantity of mBMP binding was proportional to the solution concentration, which was clearly observed through all concentrations at 0.5 hour. However, this dependence was not apparent at higher concentrations at later time points. […] The insignificant dependence on the incubation time is likely attributed to the rapid binding of mBMP to native bone tissue.

[4] = Binding of rhodamine-labeled peptide to living trabecular bone cores in a bone bioreactor; design: species or system bovine; conditions: 100 μg/mL in DMEM circulated, 2-10 hours
Protocol: as §1
The peptide binding to native bones was tested in three different experiments. In the first experiment, the cortical bone slices were incubated in modular peptide solution (0.5 mL, PBS) with concentrations of 50, 100, 200 and 300 μg/mL. The incubation was continued in a static condition for a period of 0.5, 1, 2 and 3 hours. […] Following each experiment, the bones were rinsed with PBS to remove unbound peptide and their fluorescence images were captured using a Typhoon fluorescence scanner (GE healthcare) or a Nikon Eclipse Ti inverted microscope. To quantify the fluorescence intensity, the images were converted into 8-bit using ImageJ to present the intensity level of each pixel in the range of 0 to 255. […]
mBMP binding to living trabecular bone cores (1 cm in diameter and 0.5 cm in thickness) harvested from bovine sternum was assessed. […] After incubating for various time periods, the binding was measured in terms of fluorescence intensity from rhodamine labeled mBMP. […]

Q: Which “effect of immobilized peptide on ALP activity” value (hMSCs [1]) does the source give for “KIPKASSVPTELSAISTLYLAAAAγEPRRγEVAγEL (KIPKASSVPTELSAISTLYLAAAA[Gla]PRR[Gla]VA[Gla]L-NH2; N-terminus assumed; SMILES CC[C@H](C)[C@H](NC(=O)[C@H](C)NC(=O)[C@H](CO)NC(=O)[C@H](CC(C)C)NC(=O)[C@H](CCC(=O)O)NC(=O)[C@@H](NC(=O)[C@@H]1CCCN1C(=O)[C@@H](NC(=O)[C@H](CO)NC(=O)[C@H](CO)NC(=O)[C@H](C)NC(=O)[C@H](CCCCN)NC(=O)[C@@H]1CCCN1C(=O)[C@@H](NC(=O)[C@@H](N)CCCCN)[C@@H](C)CC)C(C)C)[C@@H](C)O)C(=O)N[C@@H](CO)C(=O)N[C@H](C(=O)N[C@@H](CC(C)C)C(=O)N[C@@H](Cc1ccc(O)cc1)C(=O)N[C@@H](CC(C)C)C(=O)N[C@@H](C)C(=O)N[C@@H](C)C(=O)N[C@@H](C)C(=O)N[C@@H](C)C(=O)N[C@@H](CC(C(=O)O)C(=O)O)C(=O)N1CCC[C@H]1C(=O)N[C@@H](CCCNC(=N)N)C(=O)N[C@@H](CCCNC(=N)N)C(=O)N[C@@H](CC(C(=O)O)C(=O)O)C(=O)N[C@H](C(=O)N[C@@H](C)C(=O)N[C@@H](CC(C(=O)O)C(=O)O)C(=O)N[C@@H](CC(C)C)C(N)=O)C(C)C)[C@@H](C)O) [eBGa3]” here?
A: significantly enhanced

Q: And the “effect of immobilized peptide on mineralized tissue formation” value (hMSCs [2])?
A: significantly enhanced

Q: And the “dependence of binding to cortical bone on concentration and incubation time” value ([3]; 50-300 μg/mL in PBS, 0.5-3 hours)?
A: concentration-dependent

Q: What about the “binding to bone surface after dip-coating” value ([3]; bone piece dip-coated in peptide solution) of the same substance?
A: significant amount of mBMP was found to bind

Q: And the “fluorescence intensity of treated bone compared with rhodamine-treated group” value ([3]; rhodamine-labeled peptide, cortical bone)?
A: higher fluorescence intensity

Q: What about the “incubation time at which binding reached a plateau” value [4] of the same substance?
A: 4 h
